The values that follow come from US11771779B2, “Non-metallic magnetic resonance contrast agent” (HADASIT MEDICAL RESEARCH SERVICES & DEVELOPMENT LIMITED, priority 2018, dated 2023).

Read-outs that look alike come from different tables or passages of the source.

The conditions of data set [1]: in vivo; cited from earlier work.
The text on data set [2]: The dissolution process is detailed in the results section. […] Unless otherwise stated, the dissolved hyperpolarized solution was directly injected to a screw cup 10 mm NMR tube in a 5.8T NMR spectrometer via a PTFE line of about 2.4 m length with 3 s of He(g) chase. This line was wrapped with a heating tape (MRC, Holon, Israel) that enabled control over the temperature of the dissolution medium arriving to the NMR tube directly or to a collection tube in the fringe field of the spectrometer. ^15N-Nuclear Magnetic Resonance (NMR) spectra were continuously recorded immediately at the start of the dissolution process. […] In the experiments in body fluids and in experiments in which the hyperpolarized solution was first cooled to temperatures below room temperature, the dissolution media was first collected in a conical tube placed in the spectrometer's fringe field, and then was injected by syringe via a PEEK line to the NMR tube that was placed in the magnet.
For heating this hyperpolarized solution prior to arrival to the NMR tube, the PTFE line leading the hyperpolarized solution out of the spin polarization device was wrapped with a heating tape connected to a temperature controller (MRC, Holon, Israel). In this way, hyperpolarized solutions at temperatures higher than 26° C. could be obtained. For cooling the hyperpolarized solution, the heating tape was not turned on and the dissolution medium was mixed with 0 to 4 mL of D2O at 2° C. in a collection tube placed in ice-water bath in the fringe field of the magnet, prior to injection.
^15N-NMR spectroscopy was performed in a 5.8T NMR spectrometer (RS2D, Mundolsheim, France), using a 10 mm broad-band NMR probe. The chemical shift scale of the spectra presented herein was calibrated based on a separate measurement of a [^15N2]urea standard sample (4M in H2O:D2O 80:20), carried out prior to hyperpolarized ^15N acquisitions, calibrating the [^15N2]urea signal to −306 ppm (relative to nitromethane). For enhancement factor calculation, the spectra were collected with a high flip angle of […] and a repetition time of 2 s. For T1 calculation, the spectra were acquired with a low flip angle of […] and a longer repetition time of 5-10 s.
The temperature in the NMR tube was continuously monitored using an NMR compatible temperature probe (Osensa, Burnaby, BC, Canada).
Determination of the T1 of the hyperpolarized sites was performed by curve fitting of the signal decay to the following equation: S(t)=S0·e^−t/T^1·(cos θ)^t/TR, in which TR, the time between excitations, and θ, the nutation angle of excitation, are known. Curve fitting was performed using Matlab (Mathworks, Natick, Mass., USA).

The nature of data set [3]: T1 of hyperpolarized ^15N sites bound to labile protons upon dissolution in H2O and D2O, 5.8 T. It counts as physicochemical. Conditions: for T1 upon dissolution in D2O / T1 upon dissolution in H2O: ≈37° C. (35-40° C.), 5.8 T, n=2; for T1 prolongation D2O versus H2O: deuteration of labile protons.
Protocol: Spin polarization and fast dissolution were carried out in a dDNP commercial device (HyperSense, Oxford Instruments Molecular Biotools, Oxford, UK). The sample was maintained at 1.4-1.5 K and was irradiated at 94.110 GHz. ^15N NMR spectroscopy was performed in a 5.8 T NMR spectrometer (RS2D, Mundolsheim, France), using a 10-mm broadband NMR probe. The temperature in the NMR tube was continuously monitored using an NMR compatible temperature probe (Osensa, Burnaby, BC, Canada). Spectral processing and calculation of integrated intensities was performed using MNova (Mestrelab Research, Santiago de Compostela, Spain). Liquid state polarization was determined by comparing the integrated intensity of the first hyperpolarized spectrum to the integrated intensity of a standard containing a known concentration of ^15N label, where the thermal equilibrium polarization is given as PolTE=tanh(ℏγB/2kbT) Determination of the T1 of the hyperpolarized sites was performed by curve fitting of the signal decay to the following equation: S(t)=S0·e^−t/T^1·(cos θ)^t/TR in which TR, the time between excitations, and θ, the nutation angle of excitation, are known. For measurements of T1 in whole blood, 5.5 ml of whole blood in heparinized tube was obtained from a healthy volunteer and maintained at 20° C. for 2.5 h. Ten minutes before dissolution of the hyperpolarized urea sample, the blood was loaded into a NMR tube in the spectrometer and maintained at 36° C. The hyperpolarized urea sample was dissolved into a container outside the magnet and was injected in 0.5-1.0 mL aliquots followed by ≈2 ml of air through a tube at the bottom of the sample, to ensure no sample remained in the inlet line and complete mixing of the freshly injected solution with the blood. The sample was visually inspected at the end of the experiment to confirm that the hyperpolarized solution was well mixed with the blood and that there was no separation of the blood. Curve fitting was performed using Matlab (Mathworks, Natick, Mass., USA). Statistical analysis was performed using Microsoft Excel (Microsoft, Ra'anana, Israel).

In the case of `O=NO` [Nitrite (NO2), Nitrite], in data set [1], the “half-life in the circulation” value is 0.333 h.
Consider `O=[15N][O-].[Na+]` [[^15N]nitrite, sodium [^15N]nitrite], for which the T1 was found to be 14.8 ± 0.6 s in data set [2] (D2O, n=2); 13.6 ± 0.5 s in data set [2] (H2O, n=2); 14 s in data set [2] (same sample, D2O (co-polarized nitrate and nitrite)).
For `O=C1CCC(=O)[15NH]1` [[^15N]succinimide], in data set [3], the “T1 upon dissolution in D2O” value stood at 215 ± 2 s, the “T1 upon dissolution in H2O” value was found to be 45 ± 3 s and the “T1 prolongation D2O versus H2O” value is 4.8 fold.
On the same counts, the results for `Cl.N[C@@H](CCCNC(=[15NH])[15NH2])C(=O)O` [[guanido-^15N2]arginine, L-[guanido-^15N2]arginine:HCl] are 44 ± 1 s, 6.6 ± 0.3 s and 6.7 fold.
For the compound `N[13C](N)=O` [carbon-13 labeled urea, reference compound], the “decrease in polarization during 1 min transfer and administration” value in data set [3] (entire process at physiological temperatures) was “≈ 80%”.
Regarding `O=[N+]([O-])O` [nitrate (NO3—), nitrate], the “half-life in the circulation” value in data set [1] was 5 to 6 h.
